Experimental findings from patent US7235366B1 (priority 1993, dated 2007) are described below.

The target of assay [1] is T1, cloned rat μ opioid receptor (Rattus norvegicus, UniProt P33535).
T1 construct: expressed in transfected cells; host or cells: COS-7 (transient)
It is filed as binding.

Assay [2] deals with T2, wild-type mouse delta opioid receptor (Mus musculus, UniProt P32300).
T2 construct: expressed in transfected cells; host or cells: COS-7 (transient, pCMV6c)
The assay can be described thus: biochemical. It is filed as binding.

The target in assay [3] is T3, H278N mutant mouse delta opioid receptor (Mus musculus, UniProt P32300, H278N).
T3 construct: expressed in transfected cells; host or cells: COS-7 (transient, pCMV6c)
The assay can be described thus: biochemical. It is filed as binding.

The target of assay [4] is T4, MOP2 (Mus musculus, UniProt P35377).
T4 construct: expressed in transfected cells; host or cells: COS-7 (transient)
It counts as binding.

The target of assay [5] is kappa 1-74/delta65-372 chimera (Mus musculus, UniProt P32300+P33534, A193I/A281G/D128E/D204G/D206V/DEL208-209/DEL216-217/DEL300-312/E203D/E218S/E297A/F225V/F314L/G197A/G198V/I133A/I135L/I177L/I191V/I194M/I237V/I243T/I250L/I284V/I285V/I294L/I85V/INS221Y/INS293[…]/K200Q/K254R/K274R/L173A/L184V/L196M/L224T/L275M/L295V/M112L/M226T/M90L/N122E/N268S/R263K/S123T/S188G/S192P/S211M/T110S/T247G/T288A/T321A/V108A/V118K/V129L/V201P/V205A/V232L/V239I/V282A/V83G/Y219P/Y313H).

Assay [6] addresses T5, cloned mouse δ receptor (Mus musculus, UniProt P32300).
T5 construct: expressed in transfected cells
In words: biochemical. It counts as binding.

For assay [7], the target named is T6, D128N mutant mouse delta opioid receptor (Mus musculus, UniProt P32300, D128N).
T6 construct: expressed in transfected cells; host or cells: COS-7 (transient, pCMV6c)
In words: biochemical. It counts as binding.

The target of assay [8] is T7, mouse delta opioid receptor aspartate 95 to asparagine mutant (Mus musculus, UniProt P32300, D95N).
T7 construct: expressed in transfected cells; host or cells: COS-7
In words: Binding to delta receptor mutant with aspartate 95 converted to asparagine, COS-7 cells.

Assay [9] concerns the target T8, cloned mouse κ receptor (Mus musculus, UniProt P33534).
T8 construct: expressed in transfected cells
In words: biochemical. It is filed as binding.

Assay [10] addresses κ1-78/δ70-372 chimeric receptor (Mus musculus, UniProt P32300+P33534, A193I/A281G/D128E/D204G/D206V/DEL208-209/DEL216-217/DEL300-312/E203D/E218S/E297A/F225V/F314L/G197A/G198V/I133A/I135L/I177L/I191V/I194M/I237V/I243T/I250L/I284V/I285V/I294L/I85V/INS221Y/INS293VIVWTLVDINRRDP/K200Q/K254R/K274R/L173A/L184V/L196M/L224T/L275M/L295V/M112L/M226T/M90L/N122E/N268S/R263K/S123T/S188G/S192P/S211M/T110S/T247G/T288A/T321A/V108A/V118K/V129L/V201P/V205A/V232L/V239I/V282A/V83G/Y219P/Y313H). In words: biochemical.

Assay [11] has as its target T6, D128N mutant mouse delta opioid receptor. In words: Forskolin-stimulated cAMP accumulation, COS-7 cells, D128N mutant. It is filed as cell-based. (In general: Changes in cAMP serve as a functional read-out for many G protein-coupled receptors.)
Procedure: (§1) Briefly, COS-7 cells were subcultured in 12-well culture plates. The cells were transfected 48 hrs. prior to the cAMP experiments. Culture medium was removed from the wells and replaced with 500 μl of fresh medium containing 0.5 mM isobutylmethylxanthine (IBMX). Cells were incubated for 20 min at 37° C. Medium was removed and replaced with fresh medium containing 0.5 mM IBMX, with or without 10 μM forskolin and various opioid agonists. The cells were incubated for 30 min at 37° C. Medium was removed and cells sonicated in the wells in 500 μl of 1NCl. The HCl was evaporated off in a Speed-Vac and the cAMP analyzed using a radioimmunoassay kit from NEN/Dupont (Wilmington, Del.).
Assay [12] deals with T3, H278N mutant mouse delta opioid receptor. In words: Forskolin-stimulated cAMP accumulation, COS-7 cells, H278N mutant. It is filed as cell-based.
Procedure: as §1
The target in assay [13] is T4, MOP2. It is filed as cell-based.
The target in assay [14] is T9, cloned rat μ receptor (Rattus norvegicus, UniProt P33535).
T9 construct: expressed in transfected cells; host or cells: COS-7 (transient)
The assay can be described thus: biochemical. It is filed as binding.

Assay [15] concerns the target T2, wild-type mouse delta opioid receptor. In words: Forskolin-stimulated cAMP accumulation, COS-7 cells, wild-type delta receptor. It is filed as cell-based.
Procedure: as §1

T2 sequence (P32300 whole entry): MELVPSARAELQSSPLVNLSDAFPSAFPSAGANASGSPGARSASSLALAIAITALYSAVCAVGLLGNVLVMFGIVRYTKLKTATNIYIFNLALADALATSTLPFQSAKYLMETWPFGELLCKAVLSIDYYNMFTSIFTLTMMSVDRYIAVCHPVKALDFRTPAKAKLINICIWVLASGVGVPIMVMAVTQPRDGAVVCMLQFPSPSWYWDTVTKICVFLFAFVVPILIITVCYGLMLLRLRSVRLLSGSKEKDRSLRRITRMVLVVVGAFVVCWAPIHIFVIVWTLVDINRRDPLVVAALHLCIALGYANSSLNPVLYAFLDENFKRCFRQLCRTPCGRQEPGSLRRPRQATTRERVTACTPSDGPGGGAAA
T3 sequence (P32300 whole entry H278N): as the sequence (P32300 whole entry) above, with H278N counted along it
T6 sequence (P32300 whole entry D128N): as the sequence (P32300 whole entry) above, with D128N counted along it
T5 sequence (P32300 whole entry): as the sequence (P32300 whole entry) above
T7 sequence (P32300 whole entry D95N): as the sequence (P32300 whole entry) above, with D95N counted along it
T8 sequence (P33534 whole entry): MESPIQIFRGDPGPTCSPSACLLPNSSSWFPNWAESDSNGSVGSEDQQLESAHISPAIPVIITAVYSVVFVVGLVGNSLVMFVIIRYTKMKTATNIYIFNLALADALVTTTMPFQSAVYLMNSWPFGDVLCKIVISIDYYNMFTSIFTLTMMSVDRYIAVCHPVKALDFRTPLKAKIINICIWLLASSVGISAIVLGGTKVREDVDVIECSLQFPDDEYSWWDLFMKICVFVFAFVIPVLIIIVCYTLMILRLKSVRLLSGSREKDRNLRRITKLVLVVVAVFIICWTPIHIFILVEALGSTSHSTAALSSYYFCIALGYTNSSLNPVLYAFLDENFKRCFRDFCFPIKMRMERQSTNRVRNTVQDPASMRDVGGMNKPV
T4 sequence (P35377 whole entry): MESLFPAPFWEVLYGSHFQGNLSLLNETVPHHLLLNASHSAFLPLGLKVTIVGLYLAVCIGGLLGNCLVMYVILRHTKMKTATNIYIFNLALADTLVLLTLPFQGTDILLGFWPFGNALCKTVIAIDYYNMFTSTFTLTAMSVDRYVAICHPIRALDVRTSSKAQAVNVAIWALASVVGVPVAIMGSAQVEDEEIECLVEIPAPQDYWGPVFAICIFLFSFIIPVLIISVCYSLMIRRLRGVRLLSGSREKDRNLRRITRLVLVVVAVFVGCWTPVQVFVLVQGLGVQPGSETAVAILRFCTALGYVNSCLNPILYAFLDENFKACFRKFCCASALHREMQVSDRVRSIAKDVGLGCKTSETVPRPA
Chain of kappa 1-74/delta65-372 chimera (P33534+P32300 fused with the stated changes): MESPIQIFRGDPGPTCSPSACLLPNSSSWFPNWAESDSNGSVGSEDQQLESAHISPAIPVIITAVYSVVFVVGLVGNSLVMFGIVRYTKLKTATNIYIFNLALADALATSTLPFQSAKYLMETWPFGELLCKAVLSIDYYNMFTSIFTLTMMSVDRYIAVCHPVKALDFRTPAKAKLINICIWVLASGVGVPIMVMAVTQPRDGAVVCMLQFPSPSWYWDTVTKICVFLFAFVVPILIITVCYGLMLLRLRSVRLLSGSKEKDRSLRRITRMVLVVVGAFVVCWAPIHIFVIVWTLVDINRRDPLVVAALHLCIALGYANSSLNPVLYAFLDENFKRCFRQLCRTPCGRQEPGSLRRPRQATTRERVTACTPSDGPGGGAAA
Chain of κ1-78/δ70-372 chimeric receptor (P33534+P32300 fused with the stated changes): as above
T9 sequence (P33535 whole entry): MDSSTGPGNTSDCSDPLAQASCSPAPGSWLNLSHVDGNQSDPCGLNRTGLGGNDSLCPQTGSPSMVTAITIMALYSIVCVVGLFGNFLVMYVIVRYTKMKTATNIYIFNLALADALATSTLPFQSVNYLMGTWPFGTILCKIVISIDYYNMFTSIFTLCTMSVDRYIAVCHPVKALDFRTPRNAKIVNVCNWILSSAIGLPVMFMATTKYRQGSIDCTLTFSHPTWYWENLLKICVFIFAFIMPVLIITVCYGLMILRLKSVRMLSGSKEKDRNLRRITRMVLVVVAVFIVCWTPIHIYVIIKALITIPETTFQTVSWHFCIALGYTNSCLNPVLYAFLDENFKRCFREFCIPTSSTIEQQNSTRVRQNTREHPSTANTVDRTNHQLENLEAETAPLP
T1 sequence (P33535 whole entry): as above

Take pertussis toxin [PTX]: in [1], the “Decrease of specific [3H]DAMGO labelling of the rat μ receptor” value was 42+/−5%.
On to `Oc1ccc2c3c1O[C@H]1c4[nH]c5ccccc5c4C[C@@]4(O)[C@@H](C2)N(CC2CC2)CC[C@]314` [[^3H]naltrindole], for which the Kd (as a rule, a measure of binding affinity in units of concentration) stood at 0.6 ± 0.2 nM in assay [2], 0.2 ± 0.1 nM in assay [3], 0.18 nM in assay [6] and 1.3 ± 0.6 nM in assay [7]. Besides, the “Specific binding of radioligand to MOP2” value in assay [4] was “did not bind specifically”. Further, the “Binding of radioligand to the kappa 1-74/delta65-372 chimera” value in assay [5] is listed as “potently bound”.
Turning to `Oc1ccc2c3c1O[C@H]1c4[nH]c5ccccc5c4C[C@@]4(O)[C@@H](C2)N(CC2CC2)CC[C@]314` [naltrindole], the Ki (usually the dissociation constant of the complex between target and ligand, obtained from inhibition or displacement) in assay [2] is 1.4 nM; in assay [3], 0.5 nM; in assay [9], 66 nM; in assay [7] it was 5.6 nM. In addition, the “Affinity of aspartate 95 mutant and wild-type delta receptors compared” value in assay [8] is on record as “similar”. In addition, in [10], the IC50 (commonly the point on the concentration scale where inhibition reaches its midpoint) was determined as 0.25 nM.
Consider `CCC12CCN(CC3(O)CC3)C(Cc3ccc(O)cc31)C2(C)C` (racemic) [Bremazocine], for which the figures for the EC50 in assay [11], in assay [12] and in assay [15] were 80 nM, 1.5 nM and 7.4 nM, respectively. For the same compound, the Ki in assay [2] turned out to be 58 nM; in assay [3], 1.7 nM; in assay [9], 0.089 nM; in [6], 2.3 nM; in [7], 2690 nM; in assay [14] it was 0.75 nM. For the same compound, in assay [8], the “Affinity of aspartate 95 mutant and wild-type delta receptors compared” value is recorded as “similar”. Besides, in assay [13], the “Effect on forskolin-stimulated cAMP formation, MOP2” value was “no effect”.
